Measurements taken from the C3SDB collision cross section collection.
Where “and” joins values, the source holds several entries; their conditions need not be identical. Equal values may be shown once. Where a name gives a salt, the structure may show the parent alone.

conditions: [M+H-H2O]+; instrument: TW; calibrated with polyalanine and drug standards

SMILES	collision cross section (N2) [Å²]
COc1ccc2c(c1)OC1(O)COc3cc(OC)c(OC)cc3C1=C2 (stereo unspecified) [12a-HYDROXY-5-DEOXYDEHYDROMUNDUSERONE]	173
O=C(N[C@H](CO)[C@H](O)c1ccc([N+](=O)[O-])cc1)C(Cl)Cl [CHLORAMPHENICOL]	163.9
NS(=O)(=O)c1cc(C2(O)NC(=O)c3ccccc32)ccc1Cl (stereo unspecified) [CHLORTHALIDONE]	166.7

same assay, conditions: [M+H]+; instrument: TW; calibrated with polyalanine and drug standards

SMILES	collision cross section (N2)
CC(=O)O[C@@H]1CC[C@@]2(C)C(C[C@@H](OC(C)=O)[C@@]3(C)C4=CC(=O)O[C@@H](c5ccoc5)[C@]4(C)CCC23)C1(C)C (stereo partly drawn) [3alpha-ACETOXYDIHYDRODEOXYGEDUNIN]	218 Å²
CC(=O)O[C@H]1CC[C@@]2(C)C(C[C@@H](OC(C)=O)[C@]3(C)C2CC[C@@]2(C)[C@H](c4ccoc4)OC(=O)[C@H]4O[C@]423)C1(C)C (stereo partly drawn) [3beta-ACETOXYDEOXODIHYDROGEDUNIN]	219.2 Å²
CC(=O)O[C@@H]1CC2C(C)(CC[C@H](O)C2(C)C)C2CC[C@]3(C)C(=CC(=O)O[C@H]3c3ccoc3)C21C (stereo partly drawn) [3beta-HYDROXYDEOXODIHYDRODEOXYGEDUNIN]	207.1 Å²
COc1ccc(C(=O)/C=C/c2ccccc2)cc1 [4'-METHOXYCHALCONE]	153.8 Å²
Cc1c(O)c(=O)n(-c2ccccc2)n1C [4-HYDROXYANTIPYRINE]	141.4 Å²
COc1ccc(-c2cc(=O)c3c(O)cc(OC)c(OC)c3o2)c(OC)c1 [5-HYDROXY-2',4',7,8-TETRAMETHOXYFLAVONE]	182 Å²
COc1ccc(-c2coc3cc(OC)ccc3c2=O)cc1 [7,4'-DIMETHOXYISOFLAVONE]	160.3 Å²
Cn1c(=O)c2[nH]c(C3CCCC3)nc2n(C)c1=O [8-CYCLOPENTYLTHEOPHYLLINE]	158.6 Å²
COC(=O)C[C@H]1C(C)(C)C2(O)OC34CC2C(=O)[C@]1(C)C3CC[C@]1(C)C4=CC(=O)O[C@H]1c1ccoc1 (stereo partly drawn) [8beta-HYDROXYCARAPIN, 3,8-HEMIACETAL]	208.8 Å²
CC[C@@]1(O)C(=O)OCc2c1cc1n(c2=O)Cc2cc3cc(O)ccc3nc2-1 [10-HYDROXYCAMPTOTHECIN]	187 Å²
COc1ccc(-c2cc(=O)c3c(OC(C)=O)cc(OC(C)=O)cc3o2)cc1 [ACACETIN DIACETATE]	184.8 Å²
CC(=O)OC1CN2CCC1CC2 (stereo unspecified) [ACECLIDINE]	136.2 Å²
CC(=O)Nc1ccc(S(=O)(=O)c2ccc(NC(C)=O)cc2)cc1 [ACEDAPSONE]	171.2 Å²
CC(=O)c1ccc(S(=O)(=O)NC(=O)NC2CCCCC2)cc1 [ACETOHEXAMIDE]	178.2 Å²
CC(=O)N[C@@H](Cc1c[nH]c2ccccc12)C(=O)O [ACETYLTRYPTOPHAN]	152.3 Å²
Nc1nc(=O)c2ncn(COCCO)c2[nH]1 [ACYCLOVIR]	146.5 Å²
Nc1ncnc2c1ncn2[C@@H]1O[C@H](COP(=O)(O)O)[C@@H](O)[C@H]1O [ADENOSINE PHOSPHATE]	167.6 Å²
CC(C)C[C@H](NC(=O)[C@H](C)N)C(=O)O [ALANYL-dl-LEUCINE]	152.5 Å²
NCCCNCCSP(=O)(O)O [AMIFOSTINE]	146.9 Å²
Nc1cc(-c2ccncc2)c[nH]c1=O [AMRINONE]	139 Å²
COc1ccc2c(=O)c(CC(=O)O)coc2c1 [ANHYDROBRAZILIC ACID]	143.1 Å²

SMILES	collision cross section (N2)
CN1C2C[C@H](OC(=O)[C@H](CO)c3ccccc3)C[C@H]1[C@@H](O)C2 [ANISODAMINE HYDROBROMIDE]	171.1 Å²
O=c1cc(-c2ccc(O)cc2)oc2cc(O[C@@H]3O[C@H](CO)[C@@H](O)[C@H](O)[C@H]3O[C@@H]3OC[C@](O)(CO)[C@H]3O)cc(O)c12 [APIIN]	229.3 Å²
O=C1CCc2ccc(OCCCCN3CCN(c4cccc(Cl)c4Cl)CC3)cc2N1 [ARIPIPRAZOLE]	203.5 Å²
c1cc2c(cc1[C@H]1OC[C@H]3[C@@H]1CO[C@H]3c1ccc3c(c1)OCO3)OCO2 [ASARININ (-)]	171 Å²
CCCCCCCCCCCCCCCC(=O)OC[C@H](O)[C@H]1OC(=O)C(O)=C1O [ASCORBYL PALMITATE]	204.8 Å²
COC(=O)[C@H](Cc1ccccc1)NC(=O)[C@@H](N)CC(=O)O [ASPARTAME]	167.6 Å²
CC(C)=CCC/C(C)=C/COc1ccc2ccc(=O)oc2c1 [AURAPTENE]	158.3 Å²
COc1ccc(C(=O)CC(=O)c2ccc(C(C)(C)C)cc2)cc1 [AVOBENZONE]	181.2 Å²
O=C(CCCN1CCN(c2ccccn2)CC1)c1ccc(F)cc1 [AZAPERONE]	180 Å²
Cn1cnc([N+](=O)[O-])c1Sc1ncnc2nc[nH]c12 [AZATHIOPRINE]	155.1 Å²
O=c1cc(-c2ccccc2)oc2cc(O)c(O)c(O)c12 [BAICALEIN]	153.8 Å²
O=C(CCCl)NCc1ccccc1 [BECLAMIDE]	142.3 Å²
NS(=O)(=O)c1cc2c(cc1C(F)(F)F)NC(Cc1ccccc1)NS2(=O)=O (stereo unspecified) [BENDROFLUMETHIAZIDE]	188.6 Å²
O=C(Oc1cccc2cccnc12)c1ccccc1 [BENZOXIQUINE]	153.8 Å²
CN1CCc2cc3c(cc2[C@H]1[C@@H]1OC(=O)c2c1ccc1c2OCO1)OCO3 [BICUCULLINE (+)]	180 Å²
c1ccc(-c2ccc(C(c3ccccc3)n3ccnc3)cc2)cc1 (stereo unspecified) [BIFONAZOLE]	184.8 Å²
O=C(/C=C/C(=O)Oc1ccccc1C(=O)O)Oc1ccccc1C(=O)O [BISSALICYL FUMARATE]	171.1 Å²
O=C1C=CC2=C3c4cc(O)c(O)cc4CC3(O)COC2=C1 (stereo unspecified) [BRAZILEIN]	159.9 Å²
CCCC1O[C@@H]2C[C@H]3[C@@H]4CCC5=CC(=O)C=C[C@]5(C)[C@H]4[C@@H](O)C[C@]3(C)[C@]2(C(=O)CO)O1 (stereo partly specified) [BUDESONIDE]	204.6 Å²
CC1=CC2C(C(C)C)CCC(C)(O)C2CC1 (stereo unspecified) [CADIN-4-EN-10-OL]	145.9 Å²
CC(=O)OCC1(O)CC23CCC4c5ccoc5CCC4(C)C2CCC1C3 (stereo unspecified) [CAFESTOL ACETATE]	169.3 Å²

SMILES	collision cross section (N2)
NC(N)=NOCC[C@H](N)C(=O)O [CANAVANINE]	133.3 Å²
NC(=O)N1c2ccccc2C=Cc2ccccc21 [CARBAMAZEPINE]	149 Å²
C[C@@](Cc1ccc(O)c(O)c1)(NN)C(=O)O [CARBIDOPA]	142.4 Å²
C=CC1=C(C(=O)O)N2C(=O)[C@@H](NC(=O)/C(=N\O)c3csc(N)n3)[C@H]2SC1 [CEFDINIR]	190.5 Å²
CO/N=C(\C(=O)N[C@@H]1C(=O)N2C(C(=O)OCOC(=O)C(C)(C)C)=C(/C=C\c3scnc3C)CS[C@H]12)c1csc(N)n1 [CEFDITORIN PIVOXIL]	238 Å²
COCC1=C(C(=O)OC(C)OC(=O)OC(C)C)N2C(=O)[C@@H](NC(=O)/C(=N\OC)c3csc(N)n3)[C@H]2SC1 (stereo partly specified) [CEFPODOXIME PROXETIL]	235.4 Å² and 228.3 Å²
OC[C@@H](O)[C@H]1O[C@@H]2O[C@H](C(Cl)(Cl)Cl)O[C@@H]2[C@H]1O [CHLORALOSE]	163.2 Å²
NS(=O)(=O)c1cc2c(cc1Cl)NC=NS2(=O)=O [CHLOROTHIAZIDE]	161 Å²
Oc1c(Cl)cc(Cl)c2cccnc12 [CHLOROXINE]	134.3 Å²
CCOP(=S)(OCC)Oc1nc(Cl)c(Cl)cc1Cl [CHLORPYRIFOS]	201.7 Å²
CC(C)CCC[C@@H](C)[C@H]1CC[C@H]2[C@@H]3C=CC4=CC(=O)CC[C@]4(C)[C@H]3CC[C@]12C [CHOLESTA-4,6-DIEN-3-ONE]	208.3 Å²
CC(C)=CC1C(C(=O)O)C1(C)C (stereo unspecified) [CHRYSANTHEMIC ACID]	130 Å²
O=C(O)c1cc(-c2ccccc2)nc2ccccc12 [CINCHOPHEN]	154.3 Å²
CCn1nc(C(=O)O)c(=O)c2cc3c(cc21)OCO3 [CINOXACIN]	148.5 Å²
COc1cc(OC)c2ccc(=O)oc2c1 [CITROPTEN]	138.3 Å²
Oc1c(I)cc(Cl)c2cccnc12 [CLIOQUINOL]	138.2 Å²
Cc1[nH]c(C)c(Cl)c(=O)c1Cl [CLOPIDOL]	131.2 Å²
CN1CCN(C2=c3ccccc3=Nc3ccc(Cl)cc3N2)CC1 [CLOZAPINE]	177.5 Å²
COc1cc2c(c(OC)c1OC)-c1ccc(OC)c(=O)cc1[C@@H](NC(C)=O)CC2 [COLCHICINE]	194.5 Å²
CC(=O)OCC(=O)[C@@]1(O)CC[C@H]2[C@@H]3CCC4=CC(=O)CC[C@]4(C)[C@H]3C(=O)C[C@@]21C [CORTISONE ACETATE]	196.5 Å²
O=c1ccc2ccccc2o1 [COUMARIN]	122.2 Å²

same assay, conditions: [M+Na]+; instrument: TW; calibrated with polyalanine and drug standards

SMILES	collision cross section (N2) [Å²]
C#CCCCCCCCCCCCC(O)CC(O)COC(C)=O (stereo unspecified) [AVOCADYNE ACETATE]	184
CCCCCCCCCCCCCCCCCCOCC(O)CO (stereo unspecified) [BATYL ALCOHOL]	202.8
CCCCCCCCCCCCCCC(C(=O)O)C(O)(CC(=O)OC)C(=O)O (stereo unspecified) [CAPERATIC ACID]	211
C[C@H](CCC(=O)O)[C@H]1CC[C@H]2[C@@H]3[C@H](O)C[C@@H]4C[C@H](O)CC[C@]4(C)[C@H]3C[C@H](O)[C@]12C [CHOLIC ACID]	195.6

same assay, conditions: [M]+; instrument: TW; calibrated with polyalanine and drug standards

SMILES	collision cross section (N2) [Å²]
C[N+](C)(CCOc1ccccc1)Cc1ccccc1 [BEPHENIUM]	162.3
